From patent publication US20250382332A1, “NOVEL ALPHA-FACTOR BASED PEPTIDES WITH ANTIFUNGAL ACTIVITY” (INVAIO SCIENCES, INC., priority 2024, published 2025)
Peptide text beside a SMILES is read from it.

Key:
[1] = test system: Botrytis cinerea (B05.10); test: Resazurin antifungal assay of 180 alpha-factor peptide variants towards Botrytis (Example 2); type: cell-based; conditions: % inhibition of fungal growth, Botrytis conidia, resazurin; for Inhibition at 50 μM: peptide 50 μM; for Inhibition at 100 μM: peptide 100 μM
Summary of the method: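 B. cinerea B05.10 conidia (5000/well) were exposed to peptides at 100, 50, 20, 15 and 10 μM final for 24 h at 20° C. Resazurin was then added and fluorescence read at 570/620 nm. Percent growth inhibition was calculated against conidia-only wells, with four technical replicates.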

[2] = test system: Botrytis cinerea (B05.10); test: Resazurin antifungal assay of 23 alpha-factor peptides (dimers, hybrids) towards Botrytis (Example 15, Table 6); type: cell-based; set-up: key to active against Botrytis at 2.5 μM: Peptides that showed greater than 90% inhibition were considered active against Botrytis; conditions: for Inhibition at 2.5 μM / active against Botrytis at 2.5 μM: peptide 2.5 μM; for Inhibition at 2.5 μM / Inhibition at 5 μM / Inhibition at 10 μM / Inhibition at 20 μM / Inhibition at 50 μM: resazurin assay, % inhibition of fungal growth, Botrytis cinerea B05.10; for Inhibition at 5 μM: peptide 5 μM; for Inhibition at 10 μM: peptide 10 μM; for Inhibition at 20 μM: peptide 20 μM; for Inhibition at 50 μM: peptide 50 μM
Method: The antifungal activity of […] alpha-factor peptide variants towards Botrytis was tested. Experimental design:
Peptides corresponding to SEQ ID NO: 261-264 and 401-420 were chemically synthesized using the solid-phase synthesis method and resuspended in water to a stock solution of 1 mM. The stock solution was aliquoted in cryovials and stored at −80° C.
The Botrytis cinerea culture (B05.10) isolate was acquired from the Centraalbureau voor Schimmelcultures, the Netherlands. The Botrytis fungus was propagated on 0.5% V8 agar plates (200 ml V8 Juice, 3 g CaCO3, 15 g agar, 800-ml millipore water) at 20° C., in a 12 h photoperiod for 21 days.
Fungal conidia were harvested by scraping a Botrytis plate flooded with 1 ml water with 0.1% Tween 80 solution. Conidia were then collected in a 50 ml falcon tube by passing the solution through a 40 micron filter. The solution was then centrifuged at 6000 rpm and the pellet was resuspended in 1 ml of 20% glycerol. The conidia concentration of the resulting solution was counted using a hemocytometer. The stock was diluted to […] using 20% glycerol and frozen in 100 μl aliquots in −80° C. until further use.
Peptides were tested for activity against Botrytis, using the resazurin assay. For this, fungal stock conidia was first diluted to 5000 conidia/well. 50 μl of the spore suspension was added to each well of the sterile 96-well clear bottom testing plate and mixed with 50 μl of peptide solutions to a final concentration of 100, 50, 20, 10, 5 and 2.5 μM. The plate was incubated for 24 h at 20° C. After 24 h, 10 μl of resazurin dye was added to the microtiter plate and incubated again for […]. Fluorescence was measured at 570/620 nm after 4 h of incubation with resazurin.
Growth inhibition was calculated by subtracting the fluorescence values of conidia only wells from sample wells and depicted as % inhibition of fungal growth. Four technical replicates were used for all treatments.

Row | SMILES | Inhibition at 50 μM [1] | Inhibition at 100 μM [1] | Inhibition at 2.5 μM [2] | Inhibition at 5 μM [2] | Inhibition at 10 μM [2] | Inhibition at 20 μM [2] | Inhibition at 50 μM [2] | active against Botrytis at 2.5 μM [2]
1 | CSCC[C@H](NC(=O)[C@@H]1CCCN1C(=O)[C@H](CCC(N)=O)NC(=O)CNC(=O)[C@@H]1CCCN1C(=O)[C@H](Cc1c[nH]c2ccccc12)NC(=O)[C@H](Cc1ccccc1)NC(=O)[C@H](CCC(N)=O)NC(=O)[C@@H](NC(=O)[C@H](CO)NC(=O)[C@H](Cc1c[nH]cn1)NC(=O)[C@@H](N)Cc1c[nH]c2ccccc12)C(C)C)C(=O)N[C@@H](Cc1ccc(O)cc1)C(=O)O [compound 178] (H-WHSVQFWPGQPMY-OH; N-terminus and C-terminus assumed) | <90% | 97.30% |  |  |  |  |  | 
2 | CSCC[C@H](NC(=O)[C@@H]1CCCN1C(=O)[C@H](CCC(N)=O)NC(=O)CNC(=O)[C@@H]1CCCN1C(=O)[C@H](CCCCN)NC(=O)[C@H](CC(C)C)NC(=O)[C@H](CCC(=O)O)NC(=O)[C@H](CC(C)C)NC(=O)[C@H](Cc1ccccc1)NC(=O)[C@H](Cc1c[nH]cn1)NC(=O)[C@@H](N)CCCCN)C(=O)N[C@@H](Cc1ccc(O)cc1)C(=O)O [compound 179] (H-KHFLELKPGQPMY-OH; N-terminus and C-terminus assumed) | <90% | <90% |  |  |  |  |  | 
3 | CC[C@H](C)[C@H](NC(=O)[C@H](CCCCN)NC(=O)[C@H](CC(C)C)NC(=O)[C@H](C)NC(=O)[C@H](CC(C)C)NC(=O)[C@H](CC(=O)O)NC(=O)[C@H](Cc1c[nH]cn1)NC(=O)[C@@H](N)CCCCN)C(=O)NCC(=O)N[C@@H](CCC(N)=O)C(=O)N1CCC[C@H]1C(=O)N[C@@H](CCSC)C(=O)N[C@@H](Cc1ccc(O)cc1)C(=O)O [compound 180] (H-KHDLALKIGQPMY-OH; N-terminus and C-terminus assumed) | <90% | <90% |  |  |  |  |  | 
4 | CSCC[C@H](NC(=O)[C@@H]1CCCN1C(=O)[C@H](CCC(N)=O)NC(=O)CNC(=O)[C@H](C)NC(=O)[C@H](CCCNC(=N)N)NC(=O)[C@H](CC(C)C)NC(=O)[C@H](CCCNC(=N)N)NC(=O)CNC(=O)[C@H](Cc1c[nH]c2ccccc12)NC(=O)[C@H](Cc1c[nH]cn1)NC(=O)[C@H](CCCCN)NC(=O)CNC(=O)CNC(=O)CNC(=O)CNC(=O)[C@H](Cc1ccc(O)cc1)NC(=O)[C@H](CCSC)NC(=O)[C@@H]1CCCN1C(=O)[C@H](CCC(N)=O)NC(=O)CNC(=O)[C@H](C)NC(=O)[C@H](CCCNC(=N)N)NC(=O)[C@H](CC(C)C)NC(=O)[C@H](CCCNC(=N)N)NC(=O)CNC(=O)[C@H](Cc1c[nH]c2ccccc12)NC(=O)[C@H](Cc1c[nH]cn1)NC(=O)[C@@H](N)CCCCN)C(=O)N[C@@H](Cc1ccc(O)cc1)C(=O)O [compound 261] (H-KHWGRLRAGQPMYGGGGKHWGRLRAGQPMY-OH; N-terminus and C-terminus assumed) |  |  | <90% | 99.3% | 100% | 100% | 100% | 
5 | CSCC[C@H](NC(=O)[C@@H]1CCCN1C(=O)[C@H](CCC(N)=O)NC(=O)CNC(=O)[C@H](C)NC(=O)[C@H](CCCNC(=N)N)NC(=O)[C@H](CC(C)C)NC(=O)[C@H](CCCNC(=N)N)NC(=O)CNC(=O)[C@H](Cc1c[nH]c2ccccc12)NC(=O)[C@H](Cc1c[nH]cn1)NC(=O)[C@@H](N)CCCCN)C(=O)N[C@@H](Cc1ccc(O)cc1)C(=O)NCC(=O)NCC(=O)NCC(=O)NCC(=O)N[C@@H](CCCNC(=N)N)C(=O)N[C@@H](CCCNC(=N)N)C(=O)N[C@@H](CCCNC(=N)N)C(=O)N[C@@H](CCCNC(=N)N)C(=O)N[C@@H](CCCNC(=N)N)C(=O)N[C@@H](CCCNC(=N)N)C(=O)N[C@@H](CCCNC(=N)N)C(=O)N[C@@H](CCCNC(=N)N)C(=O)O [compound 262] (H-KHWGRLRAGQPMYGGGGRRRRRRRR-OH; N-terminus and C-terminus assumed) |  |  | 99.8% | 100% | 100% | 100% | 100% | active
6 | CSCC[C@H](NC(=O)[C@@H]1CCCN1C(=O)[C@H](CCC(N)=O)NC(=O)CNC(=O)[C@H](C)NC(=O)[C@H](CCCNC(=N)N)NC(=O)[C@H](CC(C)C)NC(=O)[C@H](CCCNC(=N)N)NC(=O)CNC(=O)[C@H](Cc1c[nH]c2ccccc12)NC(=O)[C@H](Cc1c[nH]cn1)NC(=O)[C@@H](N)CCCCN)C(=O)N[C@@H](Cc1ccc(O)cc1)C(=O)NCC(=O)NCC(=O)NCC(=O)NCC(=O)N[C@@H](CCCCN)C(=O)N[C@@H](CCCCN)C(=O)N[C@@H](CCCCN)C(=O)N[C@@H](CCCCN)C(=O)N[C@@H](CCCCN)C(=O)N[C@@H](CCCCN)C(=O)N[C@@H](CCCCN)C(=O)N[C@@H](CCCCN)C(=O)O [compound 263] (H-KHWGRLRAGQPMYGGGGKKKKKKKK-OH; N-terminus and C-terminus assumed) |  |  | 99.7% | 100% | 100% | 100% | 100% | active
7 | CSCC[C@H](NC(=O)[C@@H]1CCCN1C(=O)[C@H](CCC(N)=O)NC(=O)CNC(=O)[C@H](C)NC(=O)[C@H](CCCNC(=N)N)NC(=O)[C@H](CC(C)C)NC(=O)[C@H](CCCNC(=N)N)NC(=O)CNC(=O)[C@H](Cc1c[nH]c2ccccc12)NC(=O)[C@H](Cc1c[nH]cn1)NC(=O)[C@@H](N)CCCCN)C(=O)N[C@@H](Cc1ccc(O)cc1)C(=O)NCC(=O)NCC(=O)NCC(=O)NCC(=O)N[C@@H](Cc1ccc(O)cc1)C(=O)N[C@@H](CCSC)C(=O)N1CCC[C@H]1C(=O)N[C@@H](CCC(N)=O)C(=O)NCC(=O)N[C@@H](C)C(=O)N[C@@H](CCCNC(=N)N)C(=O)N[C@@H](CC(C)C)C(=O)N[C@@H](CCCNC(=N)N)C(=O)NCC(=O)N[C@@H](Cc1c[nH]c2ccccc12)C(=O)N[C@@H](Cc1c[nH]cn1)C(=O)N[C@@H](CCCCN)C(=O)O [compound 264] (H-KHWGRLRAGQPMYGGGGYMPQGARLRGWHK-OH; N-terminus and C-terminus assumed) |  |  | <90% | 96.2% | 100% | 100% | 100% | 
8 | CC[C@H](C)[C@H](NC(=O)[C@H](Cc1c[nH]cn1)NC(=O)[C@@H](N)CCCCN)C(=O)N[C@@H](CC(C)C)C(=O)N[C@@H](CCCCN)C(=O)N[C@@H](Cc1ccccc1)C(=O)N[C@@H](CCCCN)C(=O)N1CCC[C@H]1C(=O)NCC(=O)N[C@@H](CCC(N)=O)C(=O)N1CCC[C@H]1C(=O)N[C@@H](CCSC)C(=O)N[C@@H](Cc1ccc(O)cc1)C(=O)O [compound 402] (H-KHILKFKPGQPMY-OH; N-terminus and C-terminus assumed) |  |  | <90% | <90% | 96.2% | 100% | 100% | 
9 | CSCC[C@H](NC(=O)[C@@H]1CCCN1C(=O)[C@H](CCC(N)=O)NC(=O)CNC(=O)[C@@H]1CCCN1C(=O)[C@H](CCCCN)NC(=O)[C@H](Cc1ccccc1)NC(=O)[C@H](CCCNC(=N)N)NC(=O)[C@H](CC(C)C)NC(=O)[C@H](Cc1ccc(O)cc1)NC(=O)[C@H](Cc1c[nH]cn1)NC(=O)[C@@H](N)CCCCN)C(=O)N[C@@H](Cc1ccc(O)cc1)C(=O)O [compound 403] (H-KHYLRFKPGQPMY-OH; N-terminus and C-terminus assumed) |  |  | <90% | <90% | 96.0% | 100% | 100% | 
